Results taken from article doi:10.1101/2025.02.11.637513v1 (bioRxiv, 2025).

How the values were obtained:
Assay in all cases: tetrapeptide-ACC substrate cleavage kinetics
Assay type in all cases: biochemical
[1] = target: T1, human caspase-1 (Homo sapiens, UniProt P29466); conditions: Ac-P4-P3-P2-Asp-ACC substrate, 0.05-500 μM, 2-15 nM enzyme, 37°C, triplicate
T1 sequence (P29466 120-297 limits assumed): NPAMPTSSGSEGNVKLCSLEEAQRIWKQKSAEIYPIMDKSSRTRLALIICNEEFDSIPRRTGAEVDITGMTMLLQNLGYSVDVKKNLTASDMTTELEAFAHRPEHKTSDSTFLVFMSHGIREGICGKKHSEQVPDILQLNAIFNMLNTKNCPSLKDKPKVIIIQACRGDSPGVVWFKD
T1 sequence (P29466 317-404 limits assumed): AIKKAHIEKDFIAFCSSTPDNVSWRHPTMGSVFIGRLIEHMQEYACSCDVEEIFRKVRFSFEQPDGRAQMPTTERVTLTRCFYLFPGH

[2] = target: T2, human caspase-4 (Homo sapiens, UniProt P49662); conditions: Ac-P4-P3-P2-Asp-ACC substrate, 0.05-500 μM, 35-200 nM enzyme, 37°C, triplicate
T2 sequence (P49662 81-270 limits assumed): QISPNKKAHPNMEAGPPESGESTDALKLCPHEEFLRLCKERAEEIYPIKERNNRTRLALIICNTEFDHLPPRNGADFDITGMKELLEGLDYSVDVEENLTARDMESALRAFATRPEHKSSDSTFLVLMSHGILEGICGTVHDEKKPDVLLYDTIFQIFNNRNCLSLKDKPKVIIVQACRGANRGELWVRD
T2 sequence (P49662 290-377 limits assumed): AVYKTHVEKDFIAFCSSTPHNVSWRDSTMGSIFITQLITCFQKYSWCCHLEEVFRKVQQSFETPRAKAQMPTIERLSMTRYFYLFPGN

[3] = target: T3, human caspase-5 (Homo sapiens, UniProt P51878); conditions: Ac-P4-P3-P2-Asp-ACC substrate, 0.05-500 μM, 20-250 nM enzyme, 37°C, triplicate
T3 sequence (P51878 137-327 limits assumed): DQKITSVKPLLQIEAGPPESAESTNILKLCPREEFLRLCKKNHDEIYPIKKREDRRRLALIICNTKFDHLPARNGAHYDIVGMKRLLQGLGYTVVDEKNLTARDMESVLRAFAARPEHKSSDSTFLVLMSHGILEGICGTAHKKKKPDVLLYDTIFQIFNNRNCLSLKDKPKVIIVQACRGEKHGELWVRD
T3 sequence (P51878 347-434 limits assumed): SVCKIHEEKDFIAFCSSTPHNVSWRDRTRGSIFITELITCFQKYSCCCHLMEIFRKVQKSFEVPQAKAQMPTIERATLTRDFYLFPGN

[4] = target: T4, human caspase-3 (Homo sapiens, UniProt P42574); conditions: Ac-P4-P3-P2-Asp-ACC substrate, 0.05-500 μM, 3-35 nM enzyme, 37°C, triplicate
T4 sequence (P42574 29-175 limits assumed): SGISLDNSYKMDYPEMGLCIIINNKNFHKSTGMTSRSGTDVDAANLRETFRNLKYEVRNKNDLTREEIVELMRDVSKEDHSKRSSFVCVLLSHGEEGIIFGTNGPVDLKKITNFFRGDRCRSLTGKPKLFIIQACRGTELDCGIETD
T4 sequence (P42574 176-277 limits assumed): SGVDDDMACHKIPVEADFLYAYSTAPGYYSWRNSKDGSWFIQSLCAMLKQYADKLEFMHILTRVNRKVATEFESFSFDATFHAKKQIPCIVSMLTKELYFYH

[5] = target: T5, human caspase-7 (Homo sapiens, UniProt P55210); conditions: Ac-P4-P3-P2-Asp-ACC substrate, 0.05-500 μM, 40-400 nM enzyme, 37°C, triplicate
T5 sequence (P55210 24-198 limits assumed): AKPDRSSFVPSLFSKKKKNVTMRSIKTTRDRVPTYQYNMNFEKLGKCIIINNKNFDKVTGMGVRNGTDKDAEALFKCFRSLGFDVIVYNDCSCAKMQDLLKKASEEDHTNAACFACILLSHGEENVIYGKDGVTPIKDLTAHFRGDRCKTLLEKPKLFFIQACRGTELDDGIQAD
T5 sequence (P55210 207-303 limits assumed): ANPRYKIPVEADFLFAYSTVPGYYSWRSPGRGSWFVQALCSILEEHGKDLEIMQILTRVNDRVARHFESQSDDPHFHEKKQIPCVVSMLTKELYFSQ

[6] = target: human caspase-8 (Homo sapiens, UniProt Q14790); conditions: Ac-P4-P3-P2-Asp-ACC substrate, 0.05-500 μM, 6-42 nM enzyme, 37°C, triplicate
[7] = target: T6, human caspase-9 (Homo sapiens, UniProt P55211); conditions: Ac-P4-P3-P2-Asp-ACC substrate, 0.05-500 μM, 20-150 nM enzyme, 37°C, triplicate
T6 sequence (P55211 1-315 limits assumed): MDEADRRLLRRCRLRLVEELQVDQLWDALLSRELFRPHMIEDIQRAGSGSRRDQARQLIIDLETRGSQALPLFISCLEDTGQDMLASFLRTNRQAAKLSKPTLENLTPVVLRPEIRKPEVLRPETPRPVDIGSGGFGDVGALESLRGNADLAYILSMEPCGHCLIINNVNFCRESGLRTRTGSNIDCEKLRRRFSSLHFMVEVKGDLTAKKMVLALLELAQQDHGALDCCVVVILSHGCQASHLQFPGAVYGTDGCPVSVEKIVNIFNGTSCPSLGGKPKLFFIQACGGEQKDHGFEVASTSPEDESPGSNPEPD
T6 sequence (P55211 331-416 limits assumed): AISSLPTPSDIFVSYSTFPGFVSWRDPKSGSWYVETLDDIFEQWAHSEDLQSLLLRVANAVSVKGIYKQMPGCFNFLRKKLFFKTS

Chain of human caspase-8 (Q14790 217-374 limits assumed): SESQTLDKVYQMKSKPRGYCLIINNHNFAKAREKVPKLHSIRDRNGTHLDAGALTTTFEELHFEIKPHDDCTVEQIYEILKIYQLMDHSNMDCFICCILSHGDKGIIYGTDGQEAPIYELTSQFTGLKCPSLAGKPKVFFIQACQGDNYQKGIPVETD
Chain of human caspase-8 (Q14790 385-479 limits assumed): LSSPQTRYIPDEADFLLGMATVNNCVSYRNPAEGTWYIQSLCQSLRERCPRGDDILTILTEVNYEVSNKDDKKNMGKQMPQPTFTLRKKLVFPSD

| Substance | kcat/KM caspase-1 [1] | kcat/KM caspase-4 [2] | kcat/KM caspase-5 [3] | kcat/KM caspase-3 [4] | kcat/KM caspase-7 [5] | kcat/KM caspase-8 [6] | kcat/KM caspase-9 [7] |
| --- | --- | --- | --- | --- | --- | --- | --- |
| Trp(Me)-Dab-Pip-Asp | 176 200 M^-1s^-1 | 4 340 M^-1s^-1 | 3 930 M^-1s^-1 | 740 M⁻¹ s⁻¹ | 20 M⁻¹ s⁻¹ | 150 M⁻¹ s⁻¹ | 120 M⁻¹ s⁻¹ |
| Trp(Me)-Glu-His(Bzl)-Asp | 623 800 M^-1s^-1 | 15 800 M^-1s^-1 | 20 140 M^-1s^-1 | 6 300 M^-1s^-1 | 280 M⁻¹ s⁻¹ | 7 620 M^-1s^-1 | 6 670 M^-1s^-1 |
| Trp-Gln-Pro-Asp | 124 300 M^-1s^-1 | 3 470 M^-1s^-1 | 5 420 M^-1s^-1 | 1 410 M^-1s^-1 | 70 M⁻¹ s⁻¹ | 2 480 M^-1s^-1 | 190 M⁻¹ s⁻¹ |
| Trp-Gln-Val-Asp | 124 800 M^-1s^-1 | 4 300 M^-1s^-1 | 5 100 M^-1s^-1 | 12 140 M^-1s^-1 | 100 M⁻¹ s⁻¹ | 3 870 M^-1s^-1 | 220 M⁻¹ s⁻¹ |
| Trp-Glu-His-Asp | 552 400 M^-1s^-1 | 18 000 M^-1s^-1 | 26 800 M^-1s^-1 | 8 970 M^-1s^-1 | 410 M⁻¹ s⁻¹ | 14 900 M^-1s^-1 | 8 500 M^-1s^-1 |
| Trp-Lys-Gln-Asp | 41 600 M^-1s^-1 | 320 M⁻¹ s⁻¹ | 160 M⁻¹ s⁻¹ | < 10 M⁻¹ s⁻¹ | < 10 M⁻¹ s⁻¹ | 30 M⁻¹ s⁻¹ | 10 M⁻¹ s⁻¹ |
| Trp-Thr-ProAsp | 110 000 M^-1s^-1 | 1 920 M^-1s^-1 | 3 180 M^-1s^-1 | 700 M⁻¹ s⁻¹ | 30 M⁻¹ s⁻¹ | 960 M⁻¹ s⁻¹ | 110 M⁻¹ s⁻¹ |
| Tyr-Gln-Pro-Asp | 47 200 M^-1s^-1 | 740 M⁻¹ s⁻¹ | 1 590 M^-1s^-1 | 1 920 M^-1s^-1 | 300 M⁻¹ s⁻¹ | 2 170 M^-1s^-1 | 350 M⁻¹ s⁻¹ |
| Tyr-Glu-Lys-Asp | 39 500 M^-1s^-1 | 750 M⁻¹ s⁻¹ | 3 430 M^-1s^-1 | 580 M⁻¹ s⁻¹ | 80 M⁻¹ s⁻¹ | 2 720 M^-1s^-1 | 130 M⁻¹ s⁻¹ |
| Tyr-Lys-Ala-Asp | 10 800 M^-1s^-1 | 140 M⁻¹ s⁻¹ | 180 M⁻¹ s⁻¹ | < 10 M⁻¹ s⁻¹ | < 10 M⁻¹ s⁻¹ | 210 M⁻¹ s⁻¹ | 50 M⁻¹ s⁻¹ |
| Tyr-Lys-Met-Asp | 9 700 M^-1s^-1 | 180 M⁻¹ s⁻¹ | < 10 M⁻¹ s⁻¹ | 50 M⁻¹ s⁻¹ | 10 M⁻¹ s⁻¹ | 210 M⁻¹ s⁻¹ | 50 M⁻¹ s⁻¹ |
| Tyr-Thr-Ile-Asp | 48 100 M^-1s^-1 | 510 M⁻¹ s⁻¹ | 810 M⁻¹ s⁻¹ | 9 750 M^-1s^-1 | 1 440 M^-1s^-1 | 3 260 M^-1s^-1 | 280 M⁻¹ s⁻¹ |
| Tyr-Tyr(2,6Cl2Bzl)-His-Asp | 8 700 M^-1s^-1 | < 10 M⁻¹ s⁻¹ | 1 560 M^-1s^-1 | 1 240 M^-1s^-1 | 50 M⁻¹ s⁻¹ | 1 050 M^-1s^-1 | 310 M⁻¹ s⁻¹ |
| Tyr-Val-His-Asp | 140 500 M^-1s^-1 | 2 920 M^-1s^-1 | 9 640 M^-1s^-1 | 1 530 M^-1s^-1 | 150 M⁻¹ s⁻¹ | 2 550 M^-1s^-1 | 15 800 M^-1s^-1 |
| Tyr-Val-Lys(tfa)-Asp | 28 100 M^-1s^-1 | 660 M⁻¹ s⁻¹ | 1 360 M^-1s^-1 | 1 430 M^-1s^-1 | 200 M⁻¹ s⁻¹ | 1 260 M^-1s^-1 | 250 M⁻¹ s⁻¹ |
